Measured values as given in PubChem BioAssay (NCI).
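Protocol summary: plate cells (96-well), add compound at 5 concentrations, incubate 48 h, interpolate endpoints linearly. At the GI50, growth is halved. TGI: total growth inhibition.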

Experiments:
Assay in all cases: NCI tumour cell line growth inhibition, 48 h
A549 NSCLC = test system: A549 NSCLC
UACC-62 melanoma = test system: UACC-62 melanoma
IGROV1 ovarian = test system: IGROV1 ovarian
786-0 renal = test system: 786-0 renal
MCF7 breast = test system: MCF7 breast
PC-3 prostate = test system: PC-3 prostate
MDA-MB-231 breast = test system: MDA-MB-231 breast
NCI-H226 lung = test system: NCI-H226 lung
HT29 colon = test system: HT29 colon
SK-MEL-2 melanoma = test system: SK-MEL-2 melanoma

| Structure (SMILES) | TGI (A549 NSCLC) [µM] | TGI (UACC-62 melanoma) [µM] | TGI (IGROV1 ovarian) [µM] | TGI (786-0 renal) [µM] | TGI (MCF7 breast) [µM] | TGI (PC-3 prostate) [µM] | TGI (MDA-MB-231 breast) [µM] | TGI (NCI-H226 lung) [µM] | TGI (HT29 colon) [µM] | TGI (SK-MEL-2 melanoma) [µM] | GI50 (A549 NSCLC) [µM] | GI50 (SK-MEL-2 melanoma) [µM] | GI50 (UACC-62 melanoma) [µM] | GI50 (IGROV1 ovarian) [µM] | GI50 (MCF7 breast) [µM] | GI50 (PC-3 prostate) [µM] | GI50 (MDA-MB-231 breast) [µM] | GI50 (NCI-H226 lung) [µM] | GI50 (HT29 colon) [µM] |
| --- | --- | --- | --- | --- | --- | --- | --- | --- | --- | --- | --- | --- | --- | --- | --- | --- | --- | --- | --- |
| COc1ccc(-c2cc(=O)c3cc(OC)c(OC)cc3[nH]2)cc1OC | > 100 | > 100 | > 100 | > 100 | > 100 | > 100 | > 100 | > 100 | > 100 | – | – | – | – | – | – | – | – | – | – |
| CCCSC1=N/C(=C\c2ccco2)C(=O)N1 | > 100 | > 100 | > 100 | > 100 | > 100 | > 100 | > 100 | > 100 | > 100 | > 100 | – | – | – | – | – | – | – | – | – |
| CCOC(=O)C(NC(=O)c1cccc(Cl)c1)(N1CCN(c2cc3c(cc2F)c(=O)c(C(=O)O)cn3CC)CC1)C(F)(F)F (centres undefined) | 64.2 | 32.4 | 47.6 | 30.9 | 37.2 | 35.1 | 36.3 | 40.1 | 42.5 | 31.1 | – | – | – | – | – | – | – | – | – |
| COc1ccc(Sc2ccccc2[N+](=O)[O-])cc1 | > 100 | > 100 | > 100 | – | – | – | – | 45.8 | 59.9 | > 100 | – | – | – | – | – | – | – | – | – |
| NS(=O)(=O)c1cc2c(cc1Cl)NC(C(=O)NNC(=O)c1ccncc1)=NS2(=O)=O | > 100 | > 100 | > 100 | > 100 | – | – | – | > 100 | > 100 | > 100 | – | – | – | – | – | – | – | – | – |
| CCc1n[nH]c(=O)n1-c1ccncc1 | > 100 | – | > 100 | > 100 | > 100 | > 100 | > 100 | > 100 | > 100 | – | – | – | – | – | – | – | – | – | – |
| Cn1c(=O)c(C#N)c(O)c2cc3ccccc3nc21 | > 100 | – | > 100 | – | – | – | – | > 100 | – | > 100 | – | – | – | – | – | – | – | – | – |
| Cc1cc(NS(=O)(=O)c2ccc(NC(NC(=O)OC(C)C)(C(F)(F)F)C(F)(F)F)cc2)nc(C)n1 | > 100 | > 100 | > 100 | > 100 | > 100 | > 100 | > 100 | > 100 | > 100 | – | – | – | – | – | – | – | – | – | – |
| Cc1cc(N(CCCl)CCCl)ccc1/C=N\NC(=O)c1cccnc1 | > 100 | 25.2 | > 100 | – | > 100 | > 100 | > 100 | 2.8 | > 100 | 59 | 21 | 27.3 | 4.51 | 35.9 | 16.8 | 22.7 | 29.3 | 1.11 | 30.3 |
| COc1ccc(N=C(SSC(=Nc2ccc(OC)cc2)c2ccc([N+](=O)[O-])o2)c2ccc([N+](=O)[O-])o2)cc1 | > 100 | 3.16 | 4.2 | 4.18 | – | 2.94 | 7.33 | 37.3 | 5.53 | 4.73 | – | – | – | – | – | – | – | – | – |
| C[C@@H](c1ccccc1)N(CC#N)[C@H]1CCC[C@]1(O)/C=C/c1ccc2c(c1)OCO2 | > 25 | 7.67 | > 25 | > 25 | 11.5 | > 25 | > 25 | > 25 | > 25 | > 25 | – | – | – | – | – | – | – | – | – |
| FC(F)(Sc1nc2ccccc2[nH]1)c1nc2ccccc2o1 | > 100 | > 100 | > 100 | > 100 | > 100 | > 100 | > 100 | > 100 | > 100 | > 100 | – | – | – | – | – | – | – | – | – |
| O=C1C[C@@]23CCC4(CC2=CCC[C@H]3O1)OCCO4 | > 100 | > 100 | > 100 | > 100 | > 100 | > 100 | > 100 | > 100 | > 100 | > 100 | – | – | – | – | – | – | – | – | – |
| CCCCCCCCCCCCCCCC(=O)OCC(COP(=O)(O)OCCNC(=O)CCSSc1ccccn1)OC(=O)CCCCCCCCCCCCCCC (centres undefined) | > 100 | > 100 | > 100 | > 100 | > 100 | > 100 | > 100 | > 100 | > 100 | > 100 | – | – | – | – | – | – | – | – | – |
| CCOC(=O)C1(NC(=O)OC(C)(C)C)CCc2[nH]oc(=O)c2C1 (centres undefined) | > 100 | > 100 | > 100 | > 100 | > 100 | > 100 | > 100 | > 100 | > 100 | > 100 | – | – | – | – | – | – | – | – | – |
| CC(C)S1=C2C(=O)CC(C)(C)CC2=Nc2ccccc21 (centres undefined) | > 100 | > 100 | > 100 | > 100 | > 100 | > 100 | > 100 | > 100 | > 100 | > 100 | – | – | – | – | – | – | – | – | – |
| CCOC(=O)c1ccc(-c2cccs2)[nH]1 | > 100 | > 100 | > 100 | > 100 | > 100 | > 100 | > 100 | > 100 | > 100 | > 100 | – | – | – | – | – | – | – | – | – |
| CC(=O)OC1C(C)OC(OC2C[C@](O)(C(C)=O)Cc3c(O)c4c(c(O)c32)C(=O)c2ccccc2C4=O)C(F)C1OC(C)=O (some centres undefined) | 2.17 | 2.81 | 9.34 | 2.36 | > 20.2 | 22.4 | 10.7 | 2.86 | > 100 | 11.3 | – | – | – | – | – | – | – | – | – |
| CNc1nc(OC)c2c(n1)[n+](C)cn2C | > 100 | > 100 | > 100 | > 100 | – | > 100 | > 100 | > 100 | > 100 | > 100 | – | – | – | – | – | – | – | – | – |
| CCOC(=O)c1sc2nc(SC)nc3c2c1NCN3c1ccccc1Cl | > 100 | > 100 | > 100 | > 100 | – | > 100 | > 100 | > 100 | > 100 | > 100 | – | – | – | – | – | – | – | – | – |
| Nc1cc(O)c2cc(N=Nc3ccc(N=Nc4ccc(N=Nc5ccc6cc(S(=O)(=O)O)cc(S(=O)(=O)O)c6c5)c5ccccc45)c4cc(S(=O)(=O)O)ccc34)c(S(=O)(=O)O)cc2c1 | > 100 | > 100 | > 100 | – | > 100 | – | – | > 93.3 | > 100 | > 100 | – | – | – | – | – | – | – | – | – |
| COc1ccc(NC(=S)Nc2cccc(C)n2)cc1 | – | > 100 | > 100 | > 100 | > 100 | > 100 | > 100 | > 100 | > 100 | > 100 | – | – | – | – | – | – | – | – | – |
